Measured values as given in patent publication US20230398130A1, “METHODS AND COMPOSITIONS FOR DIFFERENTIATING STEM CELLS” (Massachusetts Institute of Technology, priority 2020, published 2023).

Experiments:
[1] = test system: ISC-enriched organoids; test: Primary screen, 384-well 2.5-D organoid differentiation (ENR+CD, 6 days): basal lysozyme secretion (LYZ.NS); type: cell-based, murine; settings: for Dose.FC.LYZ.NS / Z.LYZ.NS / SSMD.LYZ.NS / Z.LYZ.NS (standard z score) / Dose.FC.LYZ.NS (log 2 fold change): primary screen; for Dose.FC.LYZ.NS: FC vs plate median; for SSMD.LYZ.NS: strictly standardized mean difference; for Dose.FC.LYZ.NS (log 2 fold change): vs plate median
Description: (§1) High-throughput screening.

[2] = test system: ISC-enriched organoids; test: Primary screen, 384-well 2.5-D organoid differentiation (ENR+CD, 6 days): carbachol-induced lysozyme secretion (LYZ.S); type: cell-based, murine; settings: for Dose.FC.LYZ.S / Z.LYZ.S / SSMD.LYZ.S / Dose.FC.LYZ.S (log 2 fold change): primary screen; for Dose.FC.LYZ.S: FC vs plate median; for Z.LYZ.S: standard z score; for SSMD.LYZ.S: strictly standardized mean difference; for Dose.FC.LYZ.S (log 2 fold change): vs plate median
Description: as §1

[3] = test system: ISC-enriched organoids; test: Primary screen, 384-well 2.5-D organoid differentiation (ENR+CD, 6 days, Target Selective Inhibitor Library, vs whole-plate median): ATP (CellTiter-Glo 3D, CTG); settings: for Dose.FC.CTG / Z.CTG / SSMD.CTG / Z.CTG (standard z score) / Dose.FC.CTG (log 2 fold change): primary screen; for Dose.FC.CTG: FC vs plate median; for SSMD.CTG: strictly standardized mean difference; for Dose.FC.CTG (log 2 fold change): vs plate median
[4] = dose 0.08 uM (1st of 4 lines per treatment; dose not printed in this part)
[5] = dose 0.40 uM (2nd of 4 lines per treatment; dose not printed in this part)
[6] = dose 0.08 uM, standard z score of FC
[7] = dose 0.40 uM, standard z score of FC
[8] = dose 2.00 uM, standard z score of FC
[9] = dose 10.00 uM, standard z score of FC
[10] = Dose 10.00 uM, standard z score
[11] = 1st of the 4 dose lines of the treatment (dose not given)
[12] = 2nd of the 4 dose lines of the treatment (dose not given)
[13] = 3rd of the 4 dose lines of the treatment (dose not given)
[14] = 4th of the 4 dose lines of the treatment (dose not given)

Compound: CC1(C)CCC(c2ccc(Cl)cc2)=C(CN2CCN(c3ccc(C(=O)NS(=O)(=O)c4ccc(N[C@H](CCN5CCOCC5)CSc5ccccc5)c(S(=O)(=O)C(F)(F)F)c4)cc3)CC2)C1 [ABT-263 (Navitoclax)]
- SSMD.LYZ.NS_Rep (strictly standardized mean difference) [1, 4]: 0.062
- SSMD.LYZ.NS_Rep (strictly standardized mean difference) [1, 5]: 0.062
- Dose.FC.LYZ.NS ([1]; dose 0.08 uM, ENR+CD 6 days): 0.012 log 2 fold change
- Z.LYZ.NS [1, 6]: 0.104
- Dose.FC.LYZ.NS ([1]; dose 0.40 uM, ENR+CD 6 days): 0.007 log 2 fold change
- Z.LYZ.NS [1, 7]: 0.062
- Dose.FC.LYZ.NS ([1]; dose 2.00 uM, ENR+CD 6 days): −0.143 log 2 fold change
- Z.LYZ.NS [1, 8]: −1.248
- Dose.FC.LYZ.NS ([1]; dose 10.00 uM, ENR+CD 6 days): −0.259 log 2 fold change
- Z.LYZ.NS [1, 9]: −2.259
- SSMD.LYZ.S_Rep (strictly standardized mean difference) [2, 4]: −0.041
- Z.LYZ.S (standard z score) [2, 4]: −0.064
- SSMD.LYZ.S_Rep (strictly standardized mean difference) [2, 5]: −0.134
- Z.LYZ.S (standard z score) [2, 5]: −0.129
- Dose.FC.LYZ.S ([2]; dose 0.08 uM, ENR+CD 6 days): −0.010 log 2 fold change
- Dose.FC.LYZ.S ([2]; dose 0.40 uM, ENR+CD 6 days): −0.020 log 2 fold change
- Dose.FC.LYZ.S ([2]; dose 2.00 uM, ENR+CD 6 days): −0.205 log 2 fold change
- Dose.FC.LYZ.S ([2]; dose 10.00 uM, ENR+CD 6 days): −0.400 log 2 fold change
- SSMD.CTG_Rep (strictly standardized mean difference) [3, 4]: −0.462
- SSMD.CTG_Rep (strictly standardized mean difference) [3, 5]: −0.777
- Dose.FC.CTG ([3]; dose 0.08 uM, ENR+CD 6 days): −0.212 log 2 fold change
- Z.CTG [3, 6]: −0.507
- Dose.FC.CTG ([3]; dose 0.40 uM, ENR+CD 6 days): −0.264 log 2 fold change
- Z.CTG [3, 7]: −0.631
- Dose.FC.CTG ([3]; dose 2.00 uM, ENR+CD 6 days): −0.368 log 2 fold change
- Z.CTG [3, 8]: −0.878
- Dose.FC.CTG ([3]; dose 10.00 uM, ENR+CD 6 days): −0.962 log 2 fold change
- Z.CTG [3, 9]: −2.298

Compound: Cl.Cl.O=S(=O)(NCCNC/C=C/c1ccc(Br)cc1)c1cccc2cnccc12 [H 89 2HCl]
- Dose.FC.LYZ.NS ([1]; Dose 0.08 uM): 0.140 log 2 fold change
- Z.LYZ.NS ([1]; Dose 0.08 uM, standard z score): 1.223
- Dose.FC.LYZ.NS ([1]; Dose 0.40 uM): 0.080 log 2 fold change
- Z.LYZ.NS ([1]; Dose 0.40 uM, standard z score): 0.695
- Dose.FC.LYZ.NS ([1]; Dose 2.00 uM): 0.086 log 2 fold change
- Z.LYZ.NS ([1]; Dose 2.00 uM, standard z score): 0.747
- Dose.FC.LYZ.NS ([1]; Dose 10.00 uM): 0.132 log 2 fold change
- Z.LYZ.NS [1, 10]: 1.151
- SSMD.LYZ.NS [1, 11]: 0.995
- SSMD.LYZ.NS [1, 12]: 0.816
- SSMD.LYZ.NS [1, 13]: 0.521
- SSMD.LYZ.NS [1, 14]: 0.374
- Dose.FC.LYZ.S ([2]; Dose 0.08 uM): 0.118 log 2 fold change
- Dose.FC.LYZ.S ([2]; Dose 0.40 uM): 0.148 log 2 fold change
- Dose.FC.LYZ.S ([2]; Dose 2.00 uM): 0.087 log 2 fold change
- Dose.FC.LYZ.S ([2]; Dose 10.00 uM): 0.000 log 2 fold change
- Z.LYZ.S [2, 11]: 0.764
- Z.LYZ.S [2, 12]: 0.955
- Z.LYZ.S [2, 13]: 0.565
- Z.LYZ.S [2, 14]: −0.001
- SSMD.LYZ.S [2, 11]: 0.529
- SSMD.LYZ.S [2, 12]: 0.703
- SSMD.LYZ.S [2, 13]: 0.329
- SSMD.LYZ.S [2, 14]: −0.001
- Dose.FC.CTG ([3]; Dose 0.08 uM): 0.350 log 2 fold change
- Z.CTG ([3]; Dose 0.08 uM, standard z score): 0.836
- Dose.FC.CTG ([3]; Dose 0.40 uM): 0.398 log 2 fold change
- Z.CTG ([3]; Dose 0.40 uM, standard z score): 0.950
- Dose.FC.CTG ([3]; Dose 2.00 uM): 0.421 log 2 fold change
- Z.CTG ([3]; Dose 2.00 uM, standard z score): 1.005
- Dose.FC.CTG ([3]; Dose 10.00 uM): 0.385 log 2 fold change
- Z.CTG [3, 10]: 0.919
- SSMD.CTG [3, 11]: 1.039
- SSMD.CTG [3, 12]: 0.952
- SSMD.CTG [3, 13]: 0.830
- SSMD.CTG [3, 14]: 1.211

Compound: BAM7
- Dose.FC.LYZ.NS ([1]; dose 0.08 uM, ENR+CD 6 days): 0.045 log 2 fold change
- Z.LYZ.NS [1, 6]: 0.391
- Dose.FC.LYZ.NS ([1]; dose 0.40 uM, ENR+CD 6 days): −0.009 log 2 fold change
- Z.LYZ.NS [1, 7]: −0.082
- Dose.FC.LYZ.NS ([1]; dose 2.00 uM, ENR+CD 6 days): 0.057 log 2 fold change
- Z.LYZ.NS [1, 8]: 0.498
- Dose.FC.LYZ.NS ([1]; dose 10.00 uM, ENR+CD 6 days): −0.007 log 2 fold change
- Z.LYZ.NS [1, 9]: −0.063
- Dose.FC.LYZ.S ([2]; dose 0.08 uM, ENR+CD 6 days): 0.079 log 2 fold change
- Dose.FC.LYZ.S ([2]; dose 0.40 uM, ENR+CD 6 days): 0.039 log 2 fold change
- Dose.FC.LYZ.S ([2]; dose 2.00 uM, ENR+CD 6 days): 0.019 log 2 fold change
- Dose.FC.LYZ.S ([2]; dose 10.00 uM, ENR+CD 6 days): −0.020 log 2 fold change
- Dose.FC.CTG ([3]; dose 0.08 uM, ENR+CD 6 days): 0.209 log 2 fold change
- Z.CTG [3, 6]: 0.498
- Dose.FC.CTG ([3]; dose 0.40 uM, ENR+CD 6 days): −0.010 log 2 fold change
- Z.CTG [3, 7]: −0.024
- Dose.FC.CTG ([3]; dose 2.00 uM, ENR+CD 6 days): −0.156 log 2 fold change
- Z.CTG [3, 8]: −0.373
- Dose.FC.CTG ([3]; dose 10.00 uM, ENR+CD 6 days): −0.114 log 2 fold change
- Z.CTG [3, 9]: −0.272

Compound: CC(C)(C)c1cc(NC(=O)Nc2ccc(-c3cn4c(n3)sc3cc(OCCN5CCOCC5)ccc34)cc2)no1 [Quizartinib (AC220)]
- Z.LYZ.NS (standard z score) ([1]; Dose 0.08 uM): 0.836
- Dose.FC.LYZ.NS (log 2 fold change) ([1]; Dose 0.08 uM): 0.096
- Z.LYZ.NS (standard z score) ([1]; Dose 0.40 uM): 0.341
- Dose.FC.LYZ.NS (log 2 fold change) ([1]; Dose 0.40 uM): 0.039
- Z.LYZ.NS (standard z score) ([1]; Dose 2.00 uM): −0.452
- Dose.FC.LYZ.NS (log 2 fold change) ([1]; Dose 2.00 uM): −0.052
- Z.LYZ.NS (standard z score) ([1]; Dose 10.00 uM): −1.505
- Dose.FC.LYZ.NS (log 2 fold change) ([1]; Dose 10.00 uM): −0.173
- Dose.FC.LYZ.S (log 2 fold change) ([2]; Dose 0.08 uM): 0.154
- Dose.FC.LYZ.S (log 2 fold change) ([2]; Dose 0.40 uM): 0.083
- Dose.FC.LYZ.S (log 2 fold change) ([2]; Dose 2.00 uM): −0.077
- Dose.FC.LYZ.S (log 2 fold change) ([2]; Dose 10.00 uM): −0.200
- Z.CTG (standard z score) ([3]; Dose 0.08 uM): 0.838
- Dose.FC.CTG (log 2 fold change) ([3]; Dose 0.08 uM): 0.351
- Z.CTG (standard z score) ([3]; Dose 0.40 uM): 0.355
- Dose.FC.CTG (log 2 fold change) ([3]; Dose 0.40 uM): 0.149
- Z.CTG (standard z score) ([3]; Dose 2.00 uM): −0.841
- Dose.FC.CTG (log 2 fold change) ([3]; Dose 2.00 uM): −0.352
- Z.CTG (standard z score) ([3]; Dose 10.00 uM): −1.539
- Dose.FC.CTG (log 2 fold change) ([3]; Dose 10.00 uM): −0.644
